Data as given in patent US12522855B2, “Methods and kits for identifying thrombus origin and optimizing post-ischemic event treatment” (TEL HASHOMER MEDICAL RESEARCH INFRASTRUCTURE AND SERVICES …, priority 2019, dated 2026).

Biological target: thrombin (Homo sapiens, UniProt P00734)
Conditions: 1 μM final concentration, added to selected reaction wells; 15 clots from randomized sources
Method: Thrombin activity was measured as previously described by Beilin et al., (2001, Neuroreport: doi:10.1097/00001756-200108080-00013) in 10 L triplicates of clot-free buffer in a black Nunc 96 wells microplate by a fluorometric assay quantifying the cleavage of the synthetic peptide thrombin substrate Boc-Asp(OBzl)-Pro-Arg-AMC (I-1560, Bachem, Switzerland, 13 μM final concentration). Measurements were performed by the Infinite 2000 microplate reader (Tecan, infinite 200, Switzerland) with excitation and emission filters of 360±35 and 460±35 nm, respectively. For calibration, known concentrations of bovine thrombin (Sigma-Aldrich, Israel) were used in the same assay.

## NAPAP
  effect on thrombin activity profile (specificity check of the fluorescent signal): high and consistent abolition of thrombin activity profile
